Patent US20240391936A1, “TETRAHYDROTHIENO PYRIDINE DERIVATIVES AS DDRS INHIBITORS” (CHIESI FARMACEUTICI S.P.A., priority 2021, published 2024)

Legend:
[1] = molecular target: T1, DDR2 (Homo sapiens, UniProt Q16832); assay: DDR2 binding assay (LanthaScreen Europium Kinase Binding assay); parameters: purchased Life Technologies; conditions: binding assay, 5 nM DDR2, 10 nM Kinase Tracer 178; Ki from IC50 by Cheng-Prusoff; read-out: Ki DDR2
T1 sequence (Q16832 22-855): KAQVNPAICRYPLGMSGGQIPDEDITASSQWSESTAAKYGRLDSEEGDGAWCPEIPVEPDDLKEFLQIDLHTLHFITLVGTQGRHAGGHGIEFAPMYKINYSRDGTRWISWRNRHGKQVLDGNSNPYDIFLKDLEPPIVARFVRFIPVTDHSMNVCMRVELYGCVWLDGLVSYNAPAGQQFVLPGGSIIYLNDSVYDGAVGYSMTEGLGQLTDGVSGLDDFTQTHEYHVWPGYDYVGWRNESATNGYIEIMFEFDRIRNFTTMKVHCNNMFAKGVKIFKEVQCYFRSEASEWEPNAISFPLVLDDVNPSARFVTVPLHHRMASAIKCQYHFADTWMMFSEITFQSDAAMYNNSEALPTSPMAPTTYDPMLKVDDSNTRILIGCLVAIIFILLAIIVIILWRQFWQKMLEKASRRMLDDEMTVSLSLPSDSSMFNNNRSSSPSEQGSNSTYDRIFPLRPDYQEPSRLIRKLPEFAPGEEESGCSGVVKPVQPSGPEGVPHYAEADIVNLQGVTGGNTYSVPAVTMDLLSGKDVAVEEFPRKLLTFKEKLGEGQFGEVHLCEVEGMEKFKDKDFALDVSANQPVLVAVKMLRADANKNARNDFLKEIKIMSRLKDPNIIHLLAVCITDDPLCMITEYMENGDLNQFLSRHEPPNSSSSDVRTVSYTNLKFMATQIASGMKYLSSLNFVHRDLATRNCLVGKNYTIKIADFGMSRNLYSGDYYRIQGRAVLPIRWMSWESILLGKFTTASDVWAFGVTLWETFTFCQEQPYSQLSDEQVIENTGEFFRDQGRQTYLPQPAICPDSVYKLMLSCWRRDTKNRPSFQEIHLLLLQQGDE
In short: (§1)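 Compounds incubated 1 h at room temperature with 5 nM kinase, Kinase Tracer 178 (20 nM for DDR1, 10 nM for DDR2) and 2 nM Eu-anti-GST antibody in pH 7.5 HEPES/MgCl2/EGTA/BRIJ35 buffer. TR-FRET 665/615 nm ratio read after 340 nm excitation; IC50 from 4-parameter fit, converted to Ki by Cheng-Prusoff.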

[2] = molecular target: T2, DDR1 (Homo sapiens, UniProt Q08345); assay: DDR1 cell based assay (PathHunter U2OS DDR1 assay); parameters: host or cells: U2OS-DDR1 (PathHunter); conditions: U2OS-DDR1 cells, bovine Type II Collagen 20 μg/ml
T2 sequence (Q08345 19-913): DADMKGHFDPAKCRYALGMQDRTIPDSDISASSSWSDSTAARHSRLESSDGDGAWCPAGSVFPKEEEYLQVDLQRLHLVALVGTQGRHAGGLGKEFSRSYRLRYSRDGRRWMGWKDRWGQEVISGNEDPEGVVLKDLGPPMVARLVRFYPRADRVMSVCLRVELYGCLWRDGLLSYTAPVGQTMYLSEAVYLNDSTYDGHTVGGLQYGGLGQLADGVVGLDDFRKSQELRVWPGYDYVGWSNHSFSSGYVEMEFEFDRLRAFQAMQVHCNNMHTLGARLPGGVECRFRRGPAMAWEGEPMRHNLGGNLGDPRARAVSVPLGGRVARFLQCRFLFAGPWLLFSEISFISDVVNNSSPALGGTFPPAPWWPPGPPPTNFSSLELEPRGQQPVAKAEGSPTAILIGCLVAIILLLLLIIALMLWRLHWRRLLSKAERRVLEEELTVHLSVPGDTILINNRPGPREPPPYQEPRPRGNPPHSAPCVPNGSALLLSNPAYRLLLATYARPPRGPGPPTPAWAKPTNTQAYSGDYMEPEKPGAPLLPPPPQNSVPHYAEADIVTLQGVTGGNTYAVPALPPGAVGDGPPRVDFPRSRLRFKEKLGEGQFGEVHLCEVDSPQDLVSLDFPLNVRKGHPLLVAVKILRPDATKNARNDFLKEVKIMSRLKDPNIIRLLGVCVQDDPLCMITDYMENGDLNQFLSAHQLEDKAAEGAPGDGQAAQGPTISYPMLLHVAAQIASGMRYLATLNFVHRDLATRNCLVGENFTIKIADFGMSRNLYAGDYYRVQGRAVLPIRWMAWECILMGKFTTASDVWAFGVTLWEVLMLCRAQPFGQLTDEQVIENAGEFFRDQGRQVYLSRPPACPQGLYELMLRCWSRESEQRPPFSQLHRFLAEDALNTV
In short: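 U2OS-DDR1 PathHunter cells preincubated 30 min with compound, then stimulated overnight at 37 °C with 20 μg/ml bovine type II collagen. Luminescent complementation signal read after 1 h detection at room temperature; normalized to vehicle (0%) and collagen-only (100%) controls, IC50 from variable-slope sigmoidal fit.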

[3] = molecular target: T1, DDR2; assay: DDR2 cell based assay (phospho-ELISA in HEK293T-DDR2 recombinant cells); parameters: expressed in transfected cells; host or cells: HEK293T-DDR2 recombinant cells; conditions: bovine Type II Collagen 50 μg/ml
Procedure: The inhibition of DDR2 phosphorylation by compounds was evaluated in HEK293T-DDR2 recombinant cells by phospho-ELISA assay. Briefly, HEK293T-DDR2 cells were seeded in poly-D-lysine-coated 24-well plates at a density of 250.000 cells/well and incubated for 1.5 hours at 37° C. and 5% CO2 in DMEM+10% FBS. After that, the medium was changed to serum-free DMEM and cells were incubated for 3 hours. Then. test compounds were added at different concentrations 30 minutes before stimulation with bovine Type II Collagen at 50 μg/ml for further 3 hours. For DDR2 phospho-ELISA assay (DuoSet IC Human Phospho-DDR2; R&D Systems), protein extracts were obtained by adding 60 μl/well of lysis buffer prepared according to the manufacturer's instructions. Protein concentration in the samples was determined by BCA assay and the levels of phospho-DDR2 were determined following R&D Systems indications. Raw data were normalized to maximal inhibition control (0% for normalization) and positive control (100% for normalization; cells treated with […] collagen II) and IC50 parameters were calculated in GraphPad Prism 8.0 software, using sigmoidal dose-response curve fitting with variable slope.

[4] = molecular target: T2, DDR1; assay: DDR1 binding assay (LanthaScreen Europium Kinase Binding assay); parameters: purchased Carna Biosciences; conditions: binding assay, 5 nM DDR1, 20 nM Kinase Tracer 178; Ki from IC50 by Cheng-Prusoff; read-out: Ki DDR1
In short: as §1

Row | Ki [1] | IC50 [2] | IC50 [3] | Ki [4] | Compound
1 | < 25 nM | < 25 nM | < 25 nM | < 25 nM | CC(C)(C)c1cc(NC(=O)c2csc3c2CCN(Cc2cnc4[nH]ncc4c2)C3)on1 [Example 133, 6-((1H-pyrazolo[3,4-b]pyridin-5-yl)methyl)-N-(3-(tert-butyl)isoxazol-5-yl)-4,5,6,7-tetrahydrothieno[2,3-c]pyridine-3-carboxamide]
2 | < 25 nM | < 25 nM | < 25 nM | < 25 nM | O=C(Nc1cccc(OC(F)(F)F)c1)c1csc2c1CCN(Cc1cnc3[nH]ccc3c1)C2 [Example 72, 6-((1H-pyrrolo[2,3-b]pyridin-5-yl)methyl)-N-(3-(trifluoromethoxy)phenyl)-4,5,6,7-tetrahydrothieno[2,3-c]pyridine-3-carboxamide]
3 | < 25 nM | < 25 nM | < 25 nM | < 25 nM | Cc1cn(-c2cc(NC(=O)c3csc4c3CCN(C(=O)c3cnc5ccccn35)[C@@H]4C)cc(C(F)(F)F)c2)cn1 [Example 101, (R)-6-(imidazo[1,2-a]pyridine-3-carbonyl)-7-methyl-N-(3-(4-methyl-1H-imidazol-1-yl)-5-(trifluoromethyl)phenyl)-4,5,6,7-tetrahydrothieno[2,3-c]pyridine-3-carboxamide]
4 | < 25 nM | < 25 nM | < 25 nM | < 25 nM | O=C(Nc1cccc(OC(F)(F)F)c1)c1csc2c1CCN(Cc1cnc3[nH]ncc3c1)C2 [Example 66, 6-((1H-pyrazolo[3,4-b]pyridin-5-yl)methyl)-N-(3-(trifluoromethoxy)phenyl)-4,5,6,7-tetrahydrothieno[2,3-c]pyridine-3-carboxamide]
5 | < 25 nM | < 25 nM | < 25 nM | < 25 nM | O=C(Nc1cc(CN2CCOCC2)cc(C(F)(F)F)c1)c1csc2c1CCN(C(=O)c1cnc3ccccn13)C2 [Example 20, 6-(imidazo[1,2-a]pyridine-3-carbonyl)-N-(3-(morpholinomethyl)-5-(trifluoromethyl)phenyl)-4,5,6,7-tetrahydrothieno[2,3-c]pyridine-3-carboxamide]
6 | < 25 nM | < 25 nM | 50 to 80 nM | < 25 nM | O=C(Nc1cc(F)cc(OC(F)(F)F)c1)c1csc2c1CCN(Cc1cnc3[nH]ncc3c1)C2 [Example 174, 6-((1H-pyrazolo[3,4-b]pyridin-5-yl)methyl)-N-(3-fluoro-5-(trifluoromethoxy)phenyl)-4,5,6,7-tetrahydrothieno[2,3-c]pyridine-3-carboxamide]
7 | < 25 nM | < 25 nM | < 25 nM | < 25 nM | CC(C)(C)c1cc(NC(=O)c2csc3c2CCN(Cc2cnc4[nH]ncc4c2)C3)no1 [Example 134, 6-((1H-pyrazolo[3,4-b]pyridin-5-yl)methyl)-N-(5-(tert-butyl)isoxazol-3-yl)-4,5,6,7-tetrahydrothieno[2,3-c]pyridine-3-carboxamide]
8 | < 25 nM | < 25 nM | 25 to 50 nM | < 25 nM | O=C(Nc1cncc(C(F)(F)F)c1)c1csc2c1CCN(C(=O)c1cnn3ccncc13)C2 [Example 108, 6-(pyrazolo[1,5-a]pyrazine-3-carbonyl)-N-(5-(trifluoromethyl)pyridin-3-yl)-4,5,6,7-tetrahydrothieno[2,3-c]pyridine-3-carboxamide]
9 | < 25 nM | 25 to 50 nM | < 25 nM | < 25 nM | CN1CCN(Cc2cc(NC(=O)c3csc4c3CCN(C(=O)c3cnc5ccccn35)C4)cc(C(F)(F)F)c2)CC1 [Example 1, 6-(imidazo[1,2-a]pyridine-3-carbonyl)-N-(3-((4-methylpiperazin-1-yl)methyl)-5-(trifluoromethyl)phenyl)-4,5,6,7-tetrahydrothieno[2,3-c]pyridine-3-carboxamide]
10 | < 25 nM | < 25 nM | < 25 nM | < 25 nM | O=C(Nc1cc(F)cc(C(F)(F)F)c1)c1csc2c1CCN(C(=O)c1cnc3ccccn13)C2 [Example 46, N-(3-fluoro-5-(trifluoromethyl)phenyl)-6-(imidazo[1,2-a]pyridine-3-carbonyl)-4,5,6,7-tetrahydrothieno[2,3-c]pyridine-3-carboxamide]
11 | < 25 nM | < 25 nM | < 25 nM | < 25 nM | Cc1cn(-c2cc(NC(=O)c3csc4c3CCN(C(=O)c3cnc5ccccn35)C4C)cc(C(F)(F)F)c2)cn1 (stereo not shown) [Example 98, 6-(imidazo[1,2-a]pyridine-3-carbonyl)-7-methyl-N-(3-(4-methyl-1H-imidazol-1-yl)-5-(trifluoromethyl)phenyl)-4,5,6,7-tetrahydrothieno[2,3-c]pyridine-3-carboxamide]
12 | < 25 nM | < 25 nM | < 25 nM | < 25 nM | O=C(Nc1cccc(C(F)(F)F)c1)c1csc2c1CCN(Cc1cnc3[nH]ncc3c1)C2 [Example 85, 6-((1H-pyrazolo[3,4-b]pyridin-5-yl)methyl)-N-(3-(trifluoromethyl)phenyl)-4,5,6,7-tetrahydrothieno[2,3-c]pyridine-3-carboxamide]
13 | < 25 nM | < 25 nM | 25 to 50 nM | < 25 nM | Cn1nc(C(C)(C)C)cc1NC(=O)c1csc2c1CCN(Cc1cnc3[nH]ccc3c1)C2 [Example 70, 6-((1H-pyrrolo[2,3-b]pyridin-5-yl)methyl)-N-(3-(tert-butyl)-1-methyl-1H-pyrazol-5-yl)-4,5,6,7-tetrahydrothieno[2,3-c]pyridine-3-carboxamide]
14 | < 25 nM | < 25 nM | < 25 nM | < 25 nM | O=C(Nc1cccc(OC(F)(F)F)c1)c1csc2c1CCN(C(=O)c1cnc3ccccn13)C2 [Example 8, 6-(imidazo[1,2-a]pyridine-3-carbonyl)-N-(3-(trifluoromethoxy)phenyl)-4,5,6,7-tetrahydrothieno[2,3-c]pyridine-3-carboxamide]
15 | < 25 nM | < 25 nM | < 25 nM | < 25 nM | CC(C)(c1cc(NC(=O)c2csc3c2CCN(C(=O)c2cnc4ccccn24)C3)no1)C(F)(F)F [Example 9, 6-(imidazo[1,2-a]pyridine-3-carbonyl)-N-(5-(1,1,1-trifluoro-2-methylpropan-2-yl)isoxazol-3-yl)-4,5,6,7-tetrahydrothieno[2,3-c]pyridine-3-carboxamide]
16 | < 25 nM | < 25 nM | < 25 nM | < 25 nM | O=C(Nc1cccc(C(F)(F)F)c1)c1csc2c1CCN(C(=O)c1cnc3ccccn13)C2 [Example 7, 6-(imidazo[1,2-a]pyridine-3-carbonyl)-N-(3-(trifluoromethyl)phenyl)-4,5,6,7-tetrahydrothieno[2,3-c]pyridine-3-carboxamide]
